From patent US11319324B2, “Pyrazolo-pyrrolo-pyrimidine-dione derivatives as P2X3 inhibitors” (Bayer Aktiengesellschaft, priority 2017, dated 2022)
Where a name gives a salt, the structure may show the parent alone.

Experiments:
Type in all cases: cell-based
human P2X2/3 receptors = target: T1, human P2X2/3 receptors (Homo sapiens, UniProt P56373+Q9UBL9); assay: Intracellular calcium measurement, antagonist activity at human P2X2/3 receptors (hP2X23 1321N1), Fluo8; settings: for IC50: column 4); 1321N1 cells, human P2X2/3, Fluo8, agonist ATP at EC50; read-out: 4) hP2X2/3 IC50 [nM] (1321N1); for hP2X23/hP2X3* Selectivity (1321N1): ratio of column 4) hP2X2/3 to column 3) hP2X3, 1321N1
T1 construct: expressed in transfected cells; host or cells: human astrocytoma 1321N1 (1312N1 [sic])
T1 sequence (P56373 1-397): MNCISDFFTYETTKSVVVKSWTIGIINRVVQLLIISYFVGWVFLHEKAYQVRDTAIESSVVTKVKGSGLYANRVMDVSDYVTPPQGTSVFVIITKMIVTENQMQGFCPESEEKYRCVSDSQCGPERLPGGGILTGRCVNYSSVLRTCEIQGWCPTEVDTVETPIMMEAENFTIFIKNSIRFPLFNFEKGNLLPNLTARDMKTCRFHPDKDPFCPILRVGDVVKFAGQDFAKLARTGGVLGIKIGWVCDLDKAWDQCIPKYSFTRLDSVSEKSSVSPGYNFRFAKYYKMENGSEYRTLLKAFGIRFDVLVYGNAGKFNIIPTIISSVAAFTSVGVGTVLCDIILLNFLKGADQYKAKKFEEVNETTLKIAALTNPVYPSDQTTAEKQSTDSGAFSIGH
T1 sequence (Q9UBL9 1-471): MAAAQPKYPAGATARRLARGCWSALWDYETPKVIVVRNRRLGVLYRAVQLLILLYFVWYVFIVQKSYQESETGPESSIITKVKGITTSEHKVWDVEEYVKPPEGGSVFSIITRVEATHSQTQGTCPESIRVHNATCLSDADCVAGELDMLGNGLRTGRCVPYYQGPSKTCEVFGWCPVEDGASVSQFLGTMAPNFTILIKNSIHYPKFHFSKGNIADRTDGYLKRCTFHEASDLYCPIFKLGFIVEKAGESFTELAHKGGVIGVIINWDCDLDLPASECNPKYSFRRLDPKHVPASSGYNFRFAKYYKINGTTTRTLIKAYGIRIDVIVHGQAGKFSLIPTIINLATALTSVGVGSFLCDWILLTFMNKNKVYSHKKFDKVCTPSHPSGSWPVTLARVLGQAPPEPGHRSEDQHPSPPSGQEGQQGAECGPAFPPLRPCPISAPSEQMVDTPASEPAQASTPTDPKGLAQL
Procedure, shortened: (§1)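 Inhibition of ATP-triggered Ca2+ transients is measured in 1321N1 cells expressing P2X3 homotrimers or P2X2/3 heterotrimers.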

human P2X3 receptor [1] = target: T2, human P2X3 receptor (Homo sapiens, UniProt P56373); assay: Intracellular calcium measurement, antagonist activity at human P2X3 receptors (hP2X3 1321N1), Fluo8; parameters: expressed in transfected cells; host or cells: human astrocytoma 1321N1 (1312N1 [sic]); settings: column 3); 1321N1 cells, human P2X3, Fluo8, agonist ATP at EC50
T2 sequence (P56373 1-397): T1 sequence (P56373 1-397)
Procedure, shortened: as §1

human P2X3 receptor [2] = target: T2, human P2X3 receptor; assay: Intracellular calcium measurement to assess antagonist activity at human P2X3 receptors (hP2X3 CHO), photina luminescence; parameters: expressed in transfected cells; host or cells: Chinese hamster ovary (CHO) cells; settings: column 2), CHO cells, agonist α,β-methylene-ATP at EC50
Procedure, shortened: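 CHO cells stably expressing human P2X3 and mitochondrial photina, plated the day before at 30 °C, then loaded 3 h at 37 °C in 2 mM Ca-tyrode buffer with 5 μg/ml coelenterazine. Agonist-evoked calcium luminescence read immediately; inhibition seen as signal decrease.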

Row | SMILES | IC50 (human P2X2/3 receptors) [nM] | hP2X23/hP2X3* Selectivity (1321N1) (human P2X2/3 receptors) | IC50 (human P2X3 receptor [1]) [nM] | IC50 (human P2X3 receptor [2]) [nM]
1 | Cc1ccc(-c2cc3n(CC(=O)Nc4ccc(F)cn4)c4c(c(=O)n3n2)CN(C(C)C)C4=O)c(C)n1 [Example 157] | > 32000 | >593 | 54 | 26
2 | CCc1cc2n(CC(=O)Nc3ccc(F)cn3)c3c(c(=O)n2n1)CN(C[C@H]1CN(C2CCC2)CCO1)C3=O [Example 257] | 660 | 12 | 57 | 54
3 | CCc1cc2n(CC(=O)Nc3ccc(F)cn3)c3c(c(=O)n2n1)CN(CC(=O)NC(C)C)C3=O [Example 292] | > 32000 | >267 | 120 | 112
4 | O=C(Cn1c2c(c(=O)n3nc(Cl)cc13)CN(CCN1CCOCC1)C2=O)Nc1ccc(F)cn1 [Example 105] | > 32000 | >348 | 92 | 78
5 | COCCN1Cc2c(n(CC(=O)Nc3ccc(F)cn3)c3cc(CC(C)C)nn3c2=O)C1=O [Example 98] | 2600 | 211 | 12 | 8
6 | O=C(Cn1c2c(c(=O)n3nc(C4CC4)cc13)CN(CCN1CCOCC1)C2=O)Nc1ccc(F)cn1 [Example 104] | > 32000 | >267 | 120 | 69
7 | O=C(Cn1c2c(c(=O)n3nc(C4CCOCC4)cc13)CN(C1CCCC1)C2=O)Nc1ccc(F)cn1 [Example 92] | 5050 | 192 | 26 | 64
8 | CCc1cc2n(CC(=O)Nc3ccc(F)cn3)c3c(c(=O)n2n1)CN(CC1CCCN1C(=O)OC(C)(C)C)C3=O (centres unmarked) [Example 81] | 2600 | 61 | 42 | 103
9 | CC(C)N1Cc2c(n(CC(=O)Nc3ccc(F)cn3)c3cc(CO)nn3c2=O)C1=O [Example 72] | > 32000 | >136 | 235 | 120
10 | CCc1cc2n(CC(=O)Nc3ccc(F)cn3)c3c(c(=O)n2n1)CN(C[C@@H]1COCCN1CCC(F)(F)F)C3=O [Example 261] | 5550 | 142 | 39 | 41
11 | COC[C@H](C)N1Cc2c(n(CC(=O)Nc3ccc(F)cn3)c3cc(-c4ccc(C)nc4)nn3c2=O)C1=O [Example 151, N-(5-fluoropyridin-2-yl)-2-{6-[(2S)-1-methoxypropan-2-yl]-2-(6-methylpyridin-3-yl)-5,8-dioxo-5,6,7,8-tetrahydro-4H-pyrazolo[1,5-a]pyrrolo[3,4-d]pyrimidin-4-yl}acetamide] | 580 | 106 | 5 | 6
12 | COC[C@H](C)N1Cc2c(n(CC(=O)Nc3ccc(F)cn3)c3cc(Cl)nn3c2=O)C1=O [Example 102] | > 22500 | >278 | 81 | 114
13 | COC[C@H](C)N1Cc2c(n(CC(=O)Nc3ccc(F)cn3)c3cc(C(=O)NCC4CC4)nn3c2=O)C1=O [Example 190] | 5900 | 361 | 16 | 10
14 | CC(C)N1Cc2c(n(CC(=O)Nc3ccc(F)cn3)c3cc(C(=O)N4CCN(C)CC4)nn3c2=O)C1=O [Example 188] | > 32000 | >267 | 120 | 91
15 | COC[C@H](C)N1Cc2c(n(CC(=O)Nc3ccc(F)cn3)c3cc(C(=O)N(C)C)nn3c2=O)C1=O [Example 189] | > 23500 | >291 | 81 | 35
16 | CCc1cc2n(CC(=O)Nc3ccc(F)cn3)c3c(c(=O)n2n1)CN(C[C@H]1CN(CCC(F)(F)F)CCO1)C3=O [Example 259] | 1170 | 16 | 71 | 33

Next, values leading:

Row | IC50 (human P2X2/3 receptors) [nM] | hP2X23/hP2X3* Selectivity (1321N1) (human P2X2/3 receptors) | IC50 (human P2X3 receptor [1]) [nM] | IC50 (human P2X3 receptor [2]) [nM] | SMILES
17 | 2350 | 408 | 6 | 10 | COC[C@H](C)N1Cc2c(n(CC(=O)Nc3ccc(F)cn3)c3cc(-c4ccnc(C)c4)nn3c2=O)C1=O [Example 153]
18 | 12000 | 84 | 143 | 110 | COCC(=O)Nc1cc2n(CC(=O)Nc3ccc(F)cn3)c3c(c(=O)n2n1)CN(C(C)C)C3=O [Example 285]
19 | 9350 | 201 | 47 | 57 | CC(C)N1Cc2c(n(CC(=O)Nc3ccc(F)cn3)c3cc(NC(=O)C4CCOCC4)nn3c2=O)C1=O [Example 284]
20 | 9200 | 85 | 109 | 305 | CC(C)N1Cc2c(n(CC(=O)Nc3ccc(F)cn3)c3cc(C4CCN(C)C4)nn3c2=O)C1=O (racemic) [Example 249, N-(5-fluoropyridin-2-yl)-2-{2-[(±)-1-methylpyrrolidin-3-yl]-5,8-dioxo-6-(propan-2-yl)-5,6,7,8-tetrahydro-4H-pyrazolo[1,5-a]pyrrolo[3,4-d]pyrimidin-4-yl}acetamide]
21 | 10500 | 227 | 46 | 69 | CCc1cc2n(CC(=O)Nc3ccc(F)cn3)c3c(c(=O)n2n1)CN(Cc1ccncc1)C3=O [Example 106]
22 | > 32000 | >30 | 1060 | 335 | CCc1cc2n(CC(=O)Nc3ccc(F)cn3)c3c(c(=O)n2n1)CN(C[C@H]1CCCN1)C3=O [Example 233, 2-{2-ethyl-5,8-dioxo-6-[(2R)-pyrrolidin-2-ylmethyl]-5,6,7,8-tetrahydro-4H-pyrazolo[1,5-a]pyrrolo[3,4-d]pyrimidin-4-yl}-N-(5-fluoropyridin-2-yl)acetamide hydrochloride (1:1)]
23 | 9800 | 291 | 34 | 19 | COC[C@H](C)N1Cc2c(n(CC(=O)Nc3ccc(F)cn3)c3cc(C(=O)NCC(F)F)nn3c2=O)C1=O [Example 197]
